One assay deals with HUVECs and HLFs. The assay is described as follows: Microfluidic vasculogenesis assay with free tazarotene. In kind it is cell-based, human. The procedure:
The effects of tazarotene dosage on vascular network formation were investigated through the use of an established microfluidic vasculogenesis model (FIG. 12A). HUVECs and HLFs were embedded in 2 mg/mL human fibrin gels made 25 mM HEPES buffer and 0.5 U/mL thrombin. Media channels in the microdevice (FIG. 12A) were filled with HUVEC media supplemented with free tazarotene. Daily media changes and brightfield imaging were completed until cells were fixed with 4% paraformaldehyde at 1 week after seeding. Cells were permeabilized with 0.3% Triton X-100 (Sigma), immunostained with PEKAM-1 antibody (ThermoFisher), and stained with phalloidin (Invitrogen) and DAPI (Invitrogen) in order to visualize networks of both HUVECs and HLFs. Imaging was performed using a confocal microscope with a 10× objective. At least 3 devices were imaged for each experimental group and 3 images were taken per device. ImageJ was used to quantify vascular network characteristics (average segment length, average segment width, average number of branch points, and total endothelial area).

The next assay relates to HUVECs. The assay is described as follows: HUVEC morphology and attachment on tazarotene-loaded thin films. In kind it is cell-based, human. The procedure:
The effects of tazarotene released from bulk fibrin gels on individual cellular morphology was determined through the low-density culture of HUVECs on thin films of loaded fibrin gels. Fibrin gels with varying concentrations of bulk tazarotene incorporated were allowed to polymerize between two clean glass coverslips for 1 hour, in order to form thin films. Thin films of 80 μL were made using 2 mg/ml human fibrinogen (Enzyme Research Laboratories), HEPES buffer (25 mM), and 0.5 U/ml human thrombin. Upon removal of one glass coverslip, the remaining glass and attached gel were placed within the well of a 12-well plate and rinsed with PBS. HUVECs (15,000 cells/well) were cultured for 16 hours, at which point they were fixed and stained. Images of cells were captured at 10× using an EVOS FL Auto Imaging System, with at least 5 images taken per thin film. In order to validate the nanoparticle release of tazarotene from FBNs, 80 μL FBN gel (330 M particles/mL) thin films were formed with different relative ratios of tazarotene-loaded to unloaded FBNs. All other elements of the procedure were the same.

The mark [1] stands for this setting: fibrin gel thin films bulk loaded with tazarotene, 16 hours.

SMILES strings stand for the structures. Like-named read-outs stand apart in the source and are kept apart here.

For the compound `CCOC(=O)c1ccc(C#Cc2ccc3c(c2)C(C)(C)CCS3)nc1` [tazarotene], the “average network segment width” value was found to be 36±11 μm in the assay on HUVECs and HLFs; 23±4 μm in the assay on HUVECs and HLFs (2 μM free tazarotene, 1 week); 31±7 μm in the assay on HUVECs and HLFs (200 μM free tazarotene, 1 week). The average segment length with HUVECs and HLFs (20 nM free tazarotene, 1 week) was determined as 218±54 μm; in the assay on HUVECs and HLFs (2 μM free tazarotene, 1 week), 226±40 μm. The endothelial network area in the assay with HUVECs and HLFs (2 μM free tazarotene, 1 week) is listed as 130167±61886 μm^2; in the assay on HUVECs and HLFs (20 μM free tazarotene, 1 week), 206,763±51,803 μm^2; with HUVECs and HLFs (200 μM free tazarotene, 1 week), 240,770±44,210 μm^2; in the assay on HUVECs and HLFs (2000 μM free tazarotene, 1 week), 230,087±51,803 μm^2. The branch points entry in the assay with HUVECs and HLFs (across tazarotene concentrations) is “No significant differences”. Besides, in the assay with HUVECs (setting [1]), the “concentration with the most cell spreading” value amounted to 200 nM. In addition, in the assay with HUVECs (setting [1]), the “effect on cellular attachment” value is “no significant effect”. Further, in the assay on HUVECs (with increasing concentrations), the cell circularity entry is reported as “less circularity”. Also, the cell perimeter entry in the assay on HUVECs (with increasing concentrations) is given as “greater perimeter”.

The record behind these values is patent US20250205316A1, “COLLOIDAL FIBRIN NANOPARTICLE COMPOSITIONS AND USES” (NORTH CAROLINA STATE UNIVERSITY, priority 2023, published 2025).
